Measured values taken from patent US20190218613A1, “METHODS OF DETECTING THE FORMATION OF CELLULAR CLUSTERS OF RNA” (The Regents of the University of California, priority 2017, published 2019).
“Also recorded” adds a separate entry of the source. Where two headings read alike, the source gives them in different places.

What was measured:
[1] = system: 47× CAG RNA; assay: In vitro RNA phase separation/gelation assay (fluorescence micrographs, index of dispersion); format: biochemical; conditions: for 47× CAG RNA clustering in vitro: 100 mM ammonium acetate (NH4OAc); for 47× CAG RNA clustering / gel formation in vitro: doxorubicin added to pre-formed clusters (37° C., 1 hour) or pre-mixed before annealing
Procedure: For phase separation/gelation assays, RNAs were diluted to concentrations of 0.5 ng/μL to 0.5 μg/μL in 10 mM Tris pH 7.0, 10 mM MgCl2, 25 mM NaCl buffer, unless indicated otherwise. Nuclease-free buffer stocks were purchased from Ambion. RNA was denatured at 95° C. for 3 minutes and cooled down at 1-4° C. per minute to 37° C. final temperature in a thermocycler and imaged immediately. Samples were visualized using a custom spinning disk confocal microscope (Nikon Ti-Eclipse equipped with a Yokogawa CSU-X spinning disk module) using a×100, 1.49 numerical aperture oil immersion objective and an air-cooled EM-CCD (electron multiplying charge-coupled device). The extent of phase separation/gelation was quantified by the index of dispersion (σ^2/μ) of fluorescence intensity per pixel (pixel size 83 nm×83 nm). Briefly, variance in the fluorescence intensity per image was determined, and normalized to the mean fluorescence intensity in the solution phase of the RNA. For dilute solution (<10% of imaging area occupied with clusters), this parameter reports the extent of inhomogeneity in the sample. At least 20 independent imaging areas (about 1,800 μm^2 each) were analyzed for each condition to achieve a representative measure across the sample. Each datum point in the bar graphs represents one imaging area. Data shown are representative of three or more independent replicates, across two or more independent RNA preparations.
For antisense DNA-mediated repression of RNA phase separation, 47×CAG RNA (200 ng/μL or 2.4 μM) was incubated with the ASO at 20 μM final concentration, followed by heat denaturation and annealing as described above. Doxorubicin was purchased from Cell Signaling Technology (catalogue number 5927). For in vitro experiments, doxorubicin was added to pre-formed RNA clusters, and samples were incubated at 37° C. for 1 hour. Alternatively, doxorubicin and RNA were pre-mixed at indicated concentrations before annealing. Similar results were obtained in both cases.

[2] = system: 47× CAG RNA foci in U-2OS cells; assay: RNA FISH with probe against MS2 hairpin loops in U-2OS cells; format: cell-based
Procedure: For RNA FISH in U-2OS cells, cells expressing the desired RNA (induced for 24 hours) were fixed with 2% paraformaldehyde for 10 minutes at room temperature and permeabilized by overnight incubation in 70% ethanol at 4° C. Alternatively, cells were fixed and permeabilized by incubation for 10 minutes in methanol with 10% (v/v) acetic acid. Similar results were obtained with both fixation protocols. Fixed and permeabilized cells were either used immediately, or stored in the permeabilization medium at −20° C. until needed. RNA was detected using Cy3-labelled DNA oligonucleotides designed against the MS2-hairpin sequence.

[3] = system: nuclear speckles (SC-35); format: cell-based
Procedure: ATP depletion was achieved by rinsing cells twice in DMEM without glucose (Gibco), followed by incubation for 10 minutes in the ATP depletion medium (DMEM without glucose with 1% (v/v) dialyzed FBS (Gibco), 10 mM sodium azide and 6 mM 2-deoxy-D-glucose). Doxorubicin (stock, 10 mM in dimethylsulfoxide (DMSO)) was diluted to the desired concentration in cell culture medium and added to cells pre-induced with doxycycline for 24 hours. Cells were incubated with doxorubicin or an equivalent dilution of DMSO only as control, for 2 hours, and imaged as described above. Ammonium acetate (stock, 5 N) was diluted to 200 mM in cell culture medium. This intermediate dilution (2×) was added to cells pre-induced with doxycycline for 24 hours to achieve a final concentration of 100 mM of ammonium acetate. Cells were incubated in this medium for 10 minutes at 37° C. Normal cell culture medium was replaced after treatment, and cells were imaged immediately or 1 hour after medium replacement. For treatment with ASO, cells pre-induced with doxycycline for 48 hours were transfected with 100 nM final concentration of ASO using either Lipofectamine RNAiMAX (Invitrogen) or TranslT-Oligo Transfection Reagent (Mirius Bio) according to the manufacturers' recommended protocols. […] Cells were imaged 12 hours after transfection.
Hybridization and wash buffers were purchased from Biosearch Technologies and used according to the manufacturer's protocol. For immunofluorescence detection of proteins, methanol-fixed cells were stained using antibodies against muscleblind-like-1 (MBNL1, Abcam, ab45899), hnRNP H (Abcam, ab10374), SC-35 (Abcam, ab11826), coilin (ab87913), fibrillarin (Abcam, ab5821), PML (Abcam, ab179466), and a corresponding Alexa Fluor 647-labelled secondary antibody (Invitrogen A-21236 or Invitrogen A-21244). Samples were co-stained with an anti-green fluorescent protein (GFP) booster antibody (GBA488, Bulldog Bio) to visualize RNA foci. After labelling, samples were mounted in Prolong Gold antifade medium (Thermo Scientific) and imaged using confocal microscopy as described above.

[4] = system: 47× CAG RNA foci in U-2OS cells; assay: Live-cell reporter assay of RNA foci (MS2CP-YFP) in U-2OS cells; format: cell-based
Procedure: (§1) A monoclonal U-20S cell line stably expressing Tet-On 3G transactivator protein (Clontech) and a tandem-dimeric MS2 hairpin binding protein tagged with enhanced YFP (MS2CP-YFP) was generated via sequential lentiviral infection and selection. This stable cell line was transduced with repeat-containing plasmids under doxycyclinetetracycline-inducible promoter. […] Cell lines were tested for mycoplasma contamination using a standard PCR kit (LookOut Mycoplasma PCR Detection Kit, Sigma) and verified routinely by live-cell DNA staining.
(§2) RNA expression was induced by adding 1,000 ng/mL doxycycline for 12-48 hours, or as indicated. Before imaging, the culture medium was replaced with DMEM with 25 mM HEPES pH 7.5 or FluoroBrite DMEM (Invitrogen) with serum and antibiotics as listed above. For long-term imaging (>2 hours), cells were placed in a live-cell imaging chamber supplemented with 5% CO2. Cells were imaged using a spinning disk confocal microscope (Nikon Ti-Eclipse equipped with a Yokogawa CSU-X spinning disk module) using a×100, 1.49 numerical aperture oil immersion objective and an air-cooled EM-CCD. For each experimental condition, at least 30 randomly chosen cells were imaged and analyzed. Each datum point in the bar graphs represents one cell. Data shown are representative of three or more independent replicates.
ATP depletion was achieved by rinsing cells twice in DMEM without glucose (Gibco), followed by incubation for 10 minutes in the ATP depletion medium (DMEM without glucose with 1% (v/v) dialyzed FBS (Gibco), 10 mM sodium azide and 6 mM 2-deoxy-D-glucose). Doxorubicin (stock, 10 mM in dimethylsulfoxide (DMSO)) was diluted to the desired concentration in cell culture medium and added to cells pre-induced with doxycycline for 24 hours. Cells were incubated with doxorubicin or an equivalent dilution of DMSO only as control, for 2 hours, and imaged as described above. Ammonium acetate (stock, 5 N) was diluted to 200 mM in cell culture medium. This intermediate dilution (2×) was added to cells pre-induced with doxycycline for 24 hours to achieve a final concentration of 100 mM of ammonium acetate. Cells were incubated in this medium for 10 minutes at 37° C. Normal cell culture medium was replaced after treatment, and cells were imaged immediately or 1 hour after medium replacement. For treatment with ASO, cells pre-induced with doxycycline for 48 hours were transfected with 100 nM final concentration of ASO using either Lipofectamine RNAiMAX (Invitrogen) or TranslT-Oligo Transfection Reagent (Mirius Bio) according to the manufacturers' recommended protocols. Similar results were obtained with both transfection reagents. Cells were imaged 12 hours after transfection.
(§3) A fluorescence-intensity and size-based threshold was used to identify RNA foci. Briefly, U-2OS cells expressing the RNA of interest together with MS2CP-YFP were imaged using a spinning disk confocal microscope, and 0.3 μm Z-stacks were acquired. […] The nuclei were manually segmented, and the mean YFP fluorescence intensity in the nucleus was manually determined. RNA foci were identified using the FIJI 3D Objects Counter plugin, with an intensity threshold as 1.6x the mean fluorescence intensity in the nucleus of the cell, and a size cut-off of more than 50 adjoining pixels (pixel size, 83 nm×83 nm). […] This method was used to determine the number, volume, surface area, and the fluorescence intensity of the foci.

[5] = system: 29× GGGGCC RNA foci in U-2OS cells; assay: Live-cell reporter assay of GGGGCC RNA foci in U-2OS cells; format: cell-based
Procedure: as §1
as §2, with “replicates. […]” for “replicates.”
as §3, with “foci.” for “foci. Briefly, U-2OS cells expressing the RNA of interest together with MS2CP-YFP were imaged using a spinning disk confocal microscope, and 0.3 μm Z-stacks were acquired.”

[6] = 2.5 μM doxorubicin for 2 hours, listed as Doxorubicin

SMILES: [Cl-].[Na+] [NaCl]
- clustering of 47× CAG RNA in presence of NaCl ([1]; NaCl): inhibited

SMILES: CC(=O)O.N [ammonium acetate]
- 47× CAG RNA clustering in vitro [1]: not observed
- 47× CAG RNA clustering in vitro ([1]; listed as NH4OAc): prevents 47× CAG RNA clustering
- 47× CAG RNA foci by RNA FISH ([2]; 100 mM NH4OAc): disrupted
- nuclear speckles [3]: disrupted
- 47× CAG RNA foci in cells [4]: disappearance of 47× CAG RNA foci within minutes; also recorded: disrupted
- 29× GGGGCC RNA foci in cells ([5]; NH4OAc, same cell before and 300 s after treatment): disrupted
- 29× GGGGCC RNA foci in cells ([5]; NH4OAc, same cell before and 300 s after treatment, listed as NH4OAc): disrupting 29× GGGGCC RNA foci

SMILES: COc1cccc2c1C(=O)c1c(O)c3c(c(O)c1C2=O)C[C@@](O)(C(=O)CO)C[C@@H]3O[C@H]1C[C@H](N)[C@H](O)[C@H](C)O1 [doxorubicin]
- 47× CAG RNA clustering / gel formation in vitro [1]: prevents 47× CAG RNA clustering
- 47× CAG RNA clustering / gel formation in vitro ([1]; listed as Doxorubicin): blocked the formation of CAG RNA gels in vitro; also recorded: disrupted 47× CAG RNA clustering in vitro in a dose-dependent manner
- concentration of doxorubicin needed to disrupt RNA clusters in the in vitro experiments ([1]; in vitro): about 1 mM
- 47× CAG RNA foci by RNA FISH ([2]; 2.5 μM doxorubicin): disrupted
- nuclear speckles ([3]; 2.5 μM doxorubicin for 2 hours): not disrupted
- nuclear speckles [3, 6]: without disrupting nuclear speckles
- 47× CAG RNA foci in cells ([4]; 2.5 μM doxorubicin for 2 hours): specifically abrogated the 47× CAG RNA foci
- 47× CAG RNA foci in cells [4, 6]: potently dissolved the 47× CAG nuclear foci in cells
- concentration of doxorubicin required to disrupt RNA foci in cells ([4]; U-2OS cells, 47× CAG): 2.5 µM
- 29× GGGGCC RNA foci in cells ([5]; doxorubicin): disrupting 29× GGGGCC RNA foci; also recorded: disrupted

SMILES: CO[C@H]([C@H](O)CC(=O)[C@@H](C)[C@@H](O)CC[C@@H](C)[C@@H]1O[C@]2(CC[C@@H](C)[C@H](CC[C@H](C)C(C)=O)O2)CC[C@@H]1C)[C@H](OC(=O)C[C@@H](O)C1=C(C)C(=O)OC1=O)C(C)C [tautomycin]
- nuclear speckles ([3]; 2 μM tautomycin for 4 hours): disruption of nuclear speckles; also recorded: disrupted
- 47× CAG RNA foci in cells ([4]; 2 μM tautomycin for 4 hours): disrupts the 47× CAG RNA foci; also recorded: disrupted
